# Test results: patent publication US20180263940A1, “TREATMENT OF SKIN CONDITIONS” (priority 2015, published 2018)
# Entries after “also recorded” stand apart in the source; their conditions may differ.
# Legend:
# [1] = tested on: naturally parakeratotic tail scale skin; assay: Ex vivo mouse tail scale assay; type: cell-based; conditions: 4 days ex vivo
# Experimental: 7-9 week old wild type mice of either gender were sacrificed and the tail skin tissue harvested then cultured 4 days on a porous membrane chamber insert with the epidermis exposed to air and dermis side in contact with media drawn through the porous membrane. Various concentrations and combinations of Mesalamine (2 mM and 5 mM) and Acitretin (1 μM) were added to the media or media alone used as a control. Media was refreshed after 48 hrs. Skins were then harvested on the 4 th day and fixed in 4% PFA overnight then stored in 80% Ethanol until processed and embedded in paraffin wax. 8 micron sections were then cut and stained with Haematoxylin and Eosin and analysed. Images were taken from at least 10 scales from 3 mice per treatment condition and the % orthokeratosis measured as defined in the figure legend for FIG. 13.
# [2] = tested on: E18.5 embryonic mouse dorsal skin (Lx12/Lx12 HI mutant, Lx12/+, +/+); assay: Ex vivo chamber assay of E18.5 embryonic mouse dorsal skin after HI disease acquisition, H&E; type: cell-based; conditions: 4 days ex vivo
# Experimental: Representative Haematoxylin and Eosin staining of embryonic mouse dorsal skin from two E18.5 litters, cultured ex vivo for 4 days on chamber inserts, with 1 or 10 mM mesalamine in standard culture media or vehicle alone is shown in FIG. 9. +/+ presents wild type skin. Lx12/Lx12 represents the HI mutant skin and Lx12/+ represents seemingly normal skin carrying the recessive HI mutant allele. Note once again the abnormality observed in the spinous layer, loss of the granular layer and proportional thickening of the stratum corneum in Lx12/Lx12 (HI) vehicle treated skins. Lx12/+ skins also appeared slightly abnormal relative to +/+ vehicle treated skins. […] Images are repeated in grayscale.
# [3] = tested on: E16.5 embryonic mouse dorsal skin (Lx12/Lx12 HI mutant, Lx12/+, +/+); assay: Ex vivo chamber assay of E16.5 embryonic mouse dorsal skin during Harlequin Ichthyosis (HI) disease acquisition, H&E and immunofluorescent staining; type: cell-based
# From the text: The mouse strain ‘Abca12^tm1Lex’ NIH-0129 was obtained from Lexicon genetics and are referred to herein as Abca12Lx12/Lx12, or simply Lx12/Lx12, mice. These mice have a puromycin selection cassette-mediated exon 8 disruption and recapitulate the features of HI akin to other Abca12 mutant strains. All animal procedures complied with standards set under Australian guidelines for animal welfare and experiments were subject to Monash University animal welfare ethics review panels.
# Anti-cleaved caspase 3 (#9664P) 1:100 (IHC) Cell Signalling Technologies, USA. Anti-filaggrin (PRB-417P) 1: 1000 (IHC) Covance, USA. Anti-involucrin (PRB-140C) 1: 1000 (IHC) Covance, USA. Antikeratin 10 (PRB-159P) 1: 500 (IHC) Covance, USA. Antikeratin 10 (sc-23877) 1: 100 (IHC) Santa Cruz Biotechnology USA. Anti-keratin 14 (LL002) (ab7800) 1: 250-1000 (IHC) Abcam, UK. Anti-loricrin (PRB-145P) 1: 1000 (IHC) Covance, USA. Molecular Probes AlexaFluor A488 and 555 secondary antibodies raised in Donkey, against rabbit or mouse, were used at 1: 600, from Life Technologies. Nuclei stains used included DAPI (Sigma-Aldrich) 1: 1000. DAB staining was performed by the Monash Histology Platform using Leica autostainers and Dako products.
# The ability of mesalamine to rescue the impaired differentiation in an HI mouse model, which represents an extremely severe inflammatory skin disease, was tested. Embryonic back skins at E16.5 were harvested from a litter containing wild type, heterozygous and HI embryos. The skin was divided into two pieces and each cultured for 4 days in a standard ex vivo chamber assay, where the skin rests dermis-side down on a chamber insert membrane and draws cell culture media up from the below well, forming an air face on the epidermis side and liquid face for the dermal side, similar to the normal skin environment. Mesalamine was added in the media of one of each pair of skins at 10 mM (the active concentration determined to have most impact in the gut for intestinal diseases).
# [4] = tested on: E16.5 embryonic mouse dorsal skin (Lx12/Lx12 HI mutant, Lx12/+, +/+); assay: as above; type: cell-based; conditions: second E16.5 litter, 1 or 10 mM, 4 days ex vivo
# [5] = tested on: E16.5 embryonic back skin (Abca12 Lx12/Lx12 and Lx12/+); assay: Harlequin Ichthyosis ex vivo embryo whole mount skin assay, cornified envelope thickening; type: cell-based, mouse; conditions: 10 mM Mesalamine or 1 uM Acitretin, 4 days ex vivo
# Experimental: Embryonic back skin was collected at E16.5 from across 3 litters generated by Abca12 Lx12/+ cross Abca12 Lx12/+ matings to generate Harlequin Ichthyosis embryos Abca12 Lx12/Lx12 and control siblings Abca12 Lx12/+ and Abca12+/+. The embryonic skin was then cultured 4 days on a porous membrane chamber insert with the epidermis exposed to air and dermis side in contact with media drawn through the porous membrane to permit maturation and adaptation to air. 10 mM Mesalamine or 1 uM Acitretin was supplied in the culture media and media refreshed at 48 hrs. Vehicle samples were left without drug treatment. Skins were then harvested on the 4th day and fixed in 4% PFA for 3-4 hrs then stored in 80% Ethanol until processed and embedded in paraffin wax. 8 micron sections were then cut and stained with Haematoxylin and Eosin and analysed. The percentage of skin thickness accounted for by the cornified envelope (cornified layer) was measured and results normalised as a fold change over the vehicle-treated control siblings in each assay. Wild type siblings were under represented in these litters so phenotypically normal heterozygote siblings were used as controls.
# GRHL3 −/− epidermis = assay: Ex vivo whole mount assay of GRHL3 -/- skin (proxy model of Lamellar Ichthyosis), cornified layer thickness; type: cell-based, mouse; conditions: E16.5, 10 mM, 4 days ex vivo
# Experimental: Embryonic back skin was collected at E16.5 from litters generated by GRHL3+/− cross Abca12 GRHL3+/− matings to generate Ichthyosis embryos GRHL3 −/− and control siblings GRHL3+/− and GRHL3+/+. The embryonic skin was then cultured 4 days on a porous membrane chamber insert with the epidermis exposed to air and dermis side in contact with media drawn through the porous membrane to permit maturation and adaptation to air. Skins were then harvested and fixed in 4% PFA for 3-4 hrs then stored in 80% Ethanol until processed and embedded in paraffin wax. 8 micron sections were then cut and stained with Haematoxylin and Eosin and analysed.
# [6] = Lx12/+ skin, 10 mM, 4 days ex vivo
# [7] = Lx12/Lx12 skin, 10 mM, 4 days ex vivo
# [8] = Harlequin Ichthyosis (Lx12/Lx12) skins
# [9] = control heterozygous Lx12/+ skins
SMILES,Orthokeratosis compared with 1 μM Acitretin ([1]; 2 mM Mesalamine),Orthokeratosis ([1]; 2 mM and 5 mM Mesalamine in the culture medium),"Epidermis morphology (Haematoxylin and Eosin) ([2]; Lx12/Lx12 (HI) skin, E18.5, 1 mM)","Epidermis morphology (Haematoxylin and Eosin) ([2]; all genotypes, E18.5, 10 mM)","Skin differentiation defects in HI ([3]; 10 mM in media, pair matched skins across genotypes)","Epidermis morphology (Haematoxylin and Eosin) ([3]; +/+ wild type skin, 10 mM, 4 days ex vivo)","Apoptosis (cleaved-Caspase-3 positive cells) ([3]; Lx12/+ and Lx12/Lx12 skin, 10 mM, 4 days ex vivo)","Granular layer Filaggrin (FLG) [3, 6]","Keratin 10 (K10) positive keratinocytes [3, 6]","Epidermis morphology (Haematoxylin and Eosin) ([3]; Lx12/Lx12 (HI) skin, 10 mM, 4 days ex vivo)","Granular layer Filaggrin (FLG) [3, 7]","Involucrin (INV) expression [3, 7]","Keratin 10 (K10) positive keratinocytes [3, 7]","Loricrin (LOR) expression [3, 7]",Epidermis morphology (Haematoxylin and Eosin) [4],"Cornified layer proportion of skin thickness [5, 8]","Cornified layer proportion of skin thickness [5, 9]",Cornified layer thickening (GRHL3 −/− epidermis),Orthokeratosis ([1]; 1 μM Acitretin)
"Nc1ccc(O)c(C(=O)O)c1 [Mesalamine, 5-aminosalicylic acid]",performing similarly to 1 μM Acitretin,dose dependent increase in orthokeratosis,acquires a more-normal appearance,reducing the keratinocytes accumulating in the spinous layers,significantly rescued,did not however appear to greatly effect,apoptosis is reduced,restored,revert to normal levels,acquires a more-normal appearance,partially restored,"a more organised, and delayed (granular layer) expression",some modest improvement,"a more normal, predominantly granular layer expression",acquires a more-normal appearance,reduced the cornified layer proportion to vehicle control levels,reduced the thickness,reduced hyper-thickening of the cornified layer; also recorded: loss of thickening,–
COc1cc(C)c(/C=C/C(C)=C/C=C/C(C)=C/C(=O)O)c(C)c1C [Acitretin],–,–,–,–,–,–,–,–,–,–,–,–,–,–,–,no significant effect,no significant effect,–,promoted orthokeratosis
